# Measurements taken from ChEMBL document CHEMBL5728717, “Amino pyrimidine compound for inhibiting protein tyrosine kinase activity” (2021).
# pIC50: −log10 of the molar value.
# Target: Epidermal growth factor receptor (Homo sapiens, UniProt P00533)
# Experiment: Kinase Inhibition Assay: Reagents and Materials:WT EGFR (Carna, Cat. No. 08-115), EGFR [L858R] (Carna, Cat. No. 08-502), EGFR [L858R/T790M] (Carna, Cat. No. 08-510), ATP (Sigma, Cat. No. A7699-1G), DMSO (Sigma, Cat. No. D2650), 96-well plate (Corning, Cat. No. 3365), 384-well plate (Greiner, Cat. No. 784076), HTRF Kinase TK Kit (Cisbio, Cat. No. 62TK0PEJ), Erlotinib (Selleckchem, Cat. No. S7787) …
# Description: Then, it was diluted in DMSO with a 3-fold series gradient dilution for 10 times. […] The corresponding substrate and ATP were added and reacted at room temperature for 20 minutes (in which a negative and a positive control were set: the negative control is blank and the positive control is erlotinib). […] The inhibitions of the enzyme activity by the compounds at different concentrations were then fitted using Graphpad 5.0 software according to the four-parameter equation, and the IC50 values were calculated.
# Chain of Epidermal growth factor receptor (P00533 25-1210 limits assumed, stated change not applied): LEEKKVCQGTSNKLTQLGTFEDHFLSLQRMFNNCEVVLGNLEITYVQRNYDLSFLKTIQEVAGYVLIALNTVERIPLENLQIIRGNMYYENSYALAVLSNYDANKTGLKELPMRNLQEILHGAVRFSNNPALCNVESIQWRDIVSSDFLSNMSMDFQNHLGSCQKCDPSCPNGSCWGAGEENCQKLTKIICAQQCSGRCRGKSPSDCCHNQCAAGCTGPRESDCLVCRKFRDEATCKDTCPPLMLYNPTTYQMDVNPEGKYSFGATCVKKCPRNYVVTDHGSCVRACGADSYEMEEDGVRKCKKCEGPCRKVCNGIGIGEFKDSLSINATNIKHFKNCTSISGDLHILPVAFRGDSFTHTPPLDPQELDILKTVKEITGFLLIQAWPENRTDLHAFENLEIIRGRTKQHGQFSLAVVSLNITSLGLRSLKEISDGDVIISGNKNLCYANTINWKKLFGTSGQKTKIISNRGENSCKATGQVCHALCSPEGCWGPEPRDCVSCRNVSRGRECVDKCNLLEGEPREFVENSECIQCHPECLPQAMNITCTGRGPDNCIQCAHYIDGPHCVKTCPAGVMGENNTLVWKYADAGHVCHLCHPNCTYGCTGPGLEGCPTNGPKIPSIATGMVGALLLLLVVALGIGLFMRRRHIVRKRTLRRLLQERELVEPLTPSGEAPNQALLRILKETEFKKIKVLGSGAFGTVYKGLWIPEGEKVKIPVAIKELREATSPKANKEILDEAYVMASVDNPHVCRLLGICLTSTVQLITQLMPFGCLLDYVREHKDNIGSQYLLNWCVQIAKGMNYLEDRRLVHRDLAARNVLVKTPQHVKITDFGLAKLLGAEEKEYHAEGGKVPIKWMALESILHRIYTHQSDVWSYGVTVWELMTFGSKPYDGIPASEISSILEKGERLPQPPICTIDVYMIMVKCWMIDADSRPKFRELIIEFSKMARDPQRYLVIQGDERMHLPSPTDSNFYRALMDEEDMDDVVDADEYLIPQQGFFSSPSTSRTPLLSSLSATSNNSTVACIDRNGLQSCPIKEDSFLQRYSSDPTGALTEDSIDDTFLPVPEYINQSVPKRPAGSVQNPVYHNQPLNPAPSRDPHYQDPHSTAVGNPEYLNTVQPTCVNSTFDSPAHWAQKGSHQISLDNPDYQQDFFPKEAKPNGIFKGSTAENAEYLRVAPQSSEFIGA
smiles,measurement,value
C=CC(=O)Nc1cc(Nc2nccc(-c3cc(F)c4nc(C)n(C(C)C)c4c3)n2)c(OC)cc1N1CCC(OC)CC1,pIC50,< 7.00
